Data as given in US20250263370A1 (Tay Therapeutics Limited, priority 2022, published 2025).
Several values for one entry are separate records, joined by “and”; a condition that tells them apart may be missing. Equal entries are not always repeated. Where two headings read alike, the source gives them in different places.

Tests used:
[1] = Pharmacokinetics and plasma concentration of Example 101 in Lewis rats after oral administration (CIA study); assay type: in vivo, Lewis rat; conditions: oral; for MRT inf: read-out: MRTInf—obs
[2] = system: IL-17A; assay: IL-17A levels by ELISA in stimulated human peripheral blood mononuclear cells; assay type: cell-based; conditions: for IC50: Homo sapiens, PBMC
Experimental: CD2, CD3, and CD28 antibody-coated beads from the T-cell activation/expansion kit (Miltenyi Biotec) were added to the PBMC at a bead-to-cell ratio of 1:2.
The mixture of PBMCs and beads were seeded into the wells of the round-bottom 96-well plate at a concentration of 2×10^5 cells/well in a total volume of 200 μL. The cells were cultured for 72 hours at 37° C. and 5% CO2 and then supernatants were collected and IL-17A and IL-22 levels were measured by ELISA. […] The final compound concentration ranged from 30,000 nM to 0.005 nM and the final DMSO concentration per well was 0.3%. PBMCs were seeded at approximately 2×10^5 cells/well in the wells of the 96-well tissue culture plate in a total volume of 190 μL. The plate was incubated for 1 hour at 37° C. and 5% CO2. […] The cells were then cultured for 24 hours at 37° C. and 5% CO2. The supernatant was collected and CXCL10 levels were measured by ELISA.

[3] = Lewis, rat, plasma, po, 10 mg/kg, Lewis rats, 10 mg/kg, day 20, mean
[4] = Lewis, rat, plasma, po, 10 mg/kg, day 0, 10 mg/kg, Mean
[5] = Lewis, rat, plasma, po, 10 mg/kg, day 0, 10 mg/kg, per test subject
[6] = Lewis, rat, plasma, po, 10 mg/kg, day 20, 10 mg/kg, per test subject
[7] = day 0, 10 mg/kg, per test subject
[8] = day 20, 10 mg/kg, per test subject

CNC(=O)c1[nH]c(C(=O)NC2CCC2)cc1O[C@@H](C)c1ccccc1 (stereo in doubt) [Example 101, N^5-cyclobutyl-N^2-methyl-3-(1-phenylethoxy)-1H-pyrrole-2,5-dicarboxamide]
AUC(0-t) [1, 3]: 10600 ng·h/mL
half-life [1, 3]: 3.28 h
Cmax ([1]; Lewis, rat, plasma, po, 10 mg/kg, Lewis rats, 10 mg/kg, day 20, mean, read-out: Cmax): 1710 ng/mL
MRT inf [1, 3]: 6.66 h
Tmax ([1]; Lewis, rat, plasma, po, 10 mg/kg, Lewis rats, 10 mg/kg, day 20, mean, read-out: Tmax): 0.67 h
AUC(0-inf) [1, 4]: 15400 ng·h/mL
AUC(0-t) [1, 4]: 15000 ng·h/mL
half-life [1, 4]: 3.22 h
Cmax ([1]; Lewis, rat, plasma, po, 10 mg/kg, day 0, 10 mg/kg, Mean, read-out: Cmax): 1980 ng/mL
MRT inf [1, 4]: 8.61 h
Tmax ([1]; Lewis, rat, plasma, po, 10 mg/kg, day 0, 10 mg/kg, Mean, read-out: Tmax): 7.3 h
AUC(0-inf) [1, 5]: 14300 ng·h/mL
AUC(0-t) [1, 5]: 14300 ng·h/mL
Cmax ([1]; Lewis, rat, plasma, po, 10 mg/kg, day 0, 10 mg/kg, per test subject, read-out: Cmax): 1880 ng/mL
MRT inf [1, 5]: 7.64 h
AUC(0-inf) [1, 6]: 8500 ng·h/mL
AUC(0-t) [1, 6]: 8420 ng·h/mL
half-life [1, 6]: 3.46 h
Cmax ([1]; Lewis, rat, plasma, po, 10 mg/kg, day 20, 10 mg/kg, per test subject, read-out: Cmax): 1660 ng/mL
MRT inf [1, 6]: 6.09 h
Tmax ([1]; Lewis, rat, plasma, po, 10 mg/kg, day 20, 10 mg/kg, per test subject, read-out: Tmax): 0.5 h
Plasma concentration ([1]; day 0, 10 mg/kg, 0.5 h, per test subject): 673 ng/mL and 707 ng/mL
Plasma concentration ([1]; day 0, 10 mg/kg, 1 h, per test subject): 1160 ng/mL and 1550 ng/mL
Plasma concentration ([1]; day 0, 10 mg/kg, 2 h, per test subject): 997 ng/mL and 1610 ng/mL
Plasma concentration ([1]; day 0, 10 mg/kg, 4 h, per test subject): 1060 ng/mL and 760 ng/mL
Plasma concentration ([1]; day 0, 10 mg/kg, 8 h, per test subject): 107 ng/mL and 147 ng/mL
Plasma concentration ([1]; day 0, 10 mg/kg, 10 h, per test subject): 2460 ng/mL and 1460 ng/mL
Plasma concentration ([1]; day 0, 10 mg/kg, 12 h, per test subject): 968 ng/mL and 656 ng/mL
Plasma concentration ([1]; day 0, 10 mg/kg, 14 h, per test subject): 525 ng/mL and 469 ng/mL
AUClast/D ([1]; day 0, 10 mg/kg, Mean): 751 (ng·h/mL)/(mg/kg)
AUC—% Extrap—obs ([1]; day 0, 10 mg/kg, Mean): 2.29%
AUCInf [1, 7]: 16528 ng·h/mL and 15290 ng·h/mL
AUClast [1, 7]: 16397 ng·h/mL and 14408 ng·h/mL
AUClast/D [1, 7]: 713 (ng·h/mL)/(mg/kg) and 820 (ng·h/mL)/(mg/kg) and 720 (ng·h/mL)/(mg/kg)
AUC—% Extrap—obs [1, 7]: 0.307% and 0.788% and 5.77%
Cmax [1, 7]: 2460 ng/mL and 1610 ng/mL
MRTInf—obs [1, 7]: 8.69 h and 9.50 h
Tmax [1, 7]: 10.0 h
Plasma concentration ([1]; day 20, 10 mg/kg, 0.25 h, per test subject): 1400 ng/mL and 1570 ng/mL
Plasma concentration ([1]; day 20, 10 mg/kg, 0.5 h, per test subject): 1550 ng/mL and 1730 ng/mL
Plasma concentration ([1]; day 20, 10 mg/kg, 1 h, per test subject): 1730 ng/mL and 1590 ng/mL
Plasma concentration ([1]; day 20, 10 mg/kg, 2 h, per test subject): 1260 ng/mL and 1320 ng/mL
Plasma concentration ([1]; day 20, 10 mg/kg, 4 h, per test subject): 513 ng/mL and 518 ng/mL
Plasma concentration ([1]; day 20, 10 mg/kg, 10 h, per test subject): 1710 ng/mL and 1460 ng/mL
Plasma concentration ([1]; day 20, 10 mg/kg, 12 h, per test subject): 461 ng/mL and 498 ng/mL
AUCInf [1, 8]: 11782 ng·h/mL and 11743 ng·h/mL
AUClast [1, 8]: 11699 ng·h/mL and 11548 ng·h/mL
AUClast/D [1, 8]: 421 (ng·h/mL)/(mg/kg) and 585 (ng·h/mL)/(mg/kg) and 577 (ng·h/mL)/(mg/kg)
AUC—% Extrap—obs [1, 8]: 0.982% and 0.700% and 1.65%
Cmax [1, 8]: 1730 ng/mL
MRTInf—obs [1, 8]: 6.80 h and 7.09 h
T1/2 [1, 8]: 2.85 h and 3.54 h
Tmax [1, 8]: 1.00 h and 0.500 h
IC50 ([2]; Test Subject 1, read-out: IL-17A IC50): 20.5 nM
IC50 ([2]; Test Subject 2, read-out: IL-17A IC50): 5.7 nM
IC50 ([2]; Test Subject 3, read-out: IL-17A IC50): 58.5 nM
IC50 ([2]; mean of test subjects, read-out: IL-17A IC50 Mean): 28.2 nM
effectiveness in reducing inflammatory biomarkers IL-17A, IL-22, and CXCL-10 relative to GSK620 ([2]; human PBMC): more effective than GSK620
IC50 for IL-17A relative to GSK620 ([2]; human PBMC, 72 hours): substantially lower IC50
Biomarker selectivity (IL-17 vs. CXCL10) ([2]; human PBMC, from mean IC50): >1063 Fold
